Experimental data: US4666900A, “Anti-ulcer and anti-hypersecretion dibenzoimidazothiazepine derivatives, compositions, and method of use therefor” (John Wyeth & Brother Ltd., priority 1985, dated 1987)
Read-outs that look alike come from different tables or passages of the source.

Tested on: rabbit isolated gastric glands
Assay: Inhibition of secretagogue-stimulated C-aminopyrine uptake in rabbit isolated gastric glands (anti-secretory activity, H+/K+ ATPase)
Format: cell-based
Conditions: 10^-4 M test compound, % inhibition of maximum response to secretagogue; for inhibition at 100 µM: Oryctolagus cuniculus
Procedure: Compounds of formula I were tested for anti-secretory activity by their ability to inhibit the effect of one or two secretagogues on isolated gastric glands.
Potential inhibitors of the highly specific proton transporting enzyme H^+ /K^+ ATPase were evaluated by a technique involving the measurement of aminopyrine accumulation in rabbit isolated gastric glands. Aminopyrine accumulates in acid-secreting cells; therefore, uptake of aminopyrine is increased by secretagogues and an inhibitor of acid secretion will reduce the response to one or more secretagogues depending upon its site of action. Compounds which reduce the response to dibutyryl cyclic adenosine monophosphate (DBcAMP) stimulation are assumed to have an intracellular site of action, and those which reduce the response to both DBcAMP and high potassium ion concentration (K^+) are thought to have an intracellular site of action at the secretory surface of the parietal cell, involving the highly specific proton-transporting enzyme, H^+ /K^+ ATPase.
The following procedure is used:
Rabbit glands are isolated from gastric mucosa from the corpus region of the stomach by a method based on one described by Berglindh T., Obrink K. J., Acta Physiol. Scand. 96, 150-159 (1976). Measurement of aminopyrine uptake is carried out using a procedure based on the method described by Berglindh T., Hellander H. F., Obrink K. J. (ibid. 97 401-414, 1976).
Compounds are tested at a concentration of 10^-4 M, for their ability to inhibit C-aminopyrine uptake in gastric glands, stimulated by DBcAMP and high K^+ respectively. Results are expressed as the % inhibition of the maximum response to the secretagogue induced by the test compound.

[1] = high K+-stimulated aminopyrine uptake, read-out: % Inhibition to stimulation by: k+
[2] = DBcAMP-stimulated aminopyrine uptake, read-out: % Inhibition to stimulation by: DBcAMP

Row | % Inhibition to stimulation by: DBcAMP (DBcAMP-stimulated aminopyrine uptake) | % Inhibition to stimulation by: k+ (high K+-stimulated aminopyrine uptake) | Structure (SMILES) | inhibition at 100 µM [1] | inhibition at 100 µM [2]
1 | ns |  | Cc1cc2nc3n(c2cc1C)Cc1ccccc1CS3 [8,13-Dihydro-4,5-dimethyldibenzo[d,h]imidazo[2,1-b][1,3]thiazepine] | 80% | 
2 |  | ns | [O-][S+]1Cc2ccccc2Cn2c1nc1ccccc12 (stereo not drawn) [8,13-Dihydrodibenz[d,h]imidazo[2,1-b][1,3]thiazepine-1-oxide] |  | 31%
3 |  |  | c1ccc2c(c1)CSc1nc3ccccc3n1C2 [8,13-Dihydrodibenzo[d,h]imidazo[2,1-b][1,3]thiazepine] | 94% | 32%
